Source: ChEMBL document CHEMBL1142056, “Structure-activity relationships of the oxindole growth hormone secretagogues” (Bioorg Med Chem Lett, 2005)

What was measured:
[1] = molecular target: Growth hormone secretagogue receptor type 1 (Homo sapiens, UniProt Q92847); experiment: Inhibition of [125I]ghrelin binding to human recombinant ghrelin receptor membrane preparation
[2] = Half life value intravenously administered to rats with 5 mg/kg; format: ADME, organism-based; parameters: dose 5 mg/kg, route intravenous; conditions: rat, in vivo, iv
[3] = Clearance value intravenously administered to rats with 5 mg/kg; format: ADME, organism-based; parameters: dose 5 mg/kg, route intravenous; conditions: rat, in vivo, iv
[4] = Cmax value in rat after oral dose of 20 mg/k; format: ADME, organism-based; parameters: route oral; conditions: in vivo, 20 mg/kg
[5] = Bioavailability value in rat after oral dose of 20 mg/k; format: ADME, organism-based; conditions: in vivo, 20 mg/kg, read-out: Bioavailabiility
[6] = Volume of distribution value intravenously administered to rats with 5 mg/kg; format: ADME, organism-based; parameters: dose 5 mg/kg, route intravenous; conditions: rat, in vivo, iv

Chain of Growth hormone secretagogue receptor type 1 (Q92847 whole entry): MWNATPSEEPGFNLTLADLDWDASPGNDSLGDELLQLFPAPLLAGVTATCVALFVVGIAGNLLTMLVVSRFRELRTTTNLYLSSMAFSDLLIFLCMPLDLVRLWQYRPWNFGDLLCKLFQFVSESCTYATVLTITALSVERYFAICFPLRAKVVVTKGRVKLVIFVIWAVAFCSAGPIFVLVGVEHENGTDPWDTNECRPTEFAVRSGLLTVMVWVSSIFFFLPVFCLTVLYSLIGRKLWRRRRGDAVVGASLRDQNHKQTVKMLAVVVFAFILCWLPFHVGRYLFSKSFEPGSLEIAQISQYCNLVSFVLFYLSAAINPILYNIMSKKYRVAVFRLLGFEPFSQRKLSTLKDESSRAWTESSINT

Compound | IC50 [1] | also measured
CCN(CC)CCN1C(=O)[C@@](O)(c2cccc(Cl)c2Cl)c2c1cc(C(N)=O)cc2C(F)(F)F | 1.6 nM | 
CCN(CC)CCN1C(=O)[C@@](O)(c2ccccc2OC)c2c1cc(C(N)=O)cc2C(F)(F)F | 160 nM | 
CCN(CC)CCN1C(=O)[C@@](O)(c2cccc(OC)c2)c2c1cc(C(N)=O)cc2C(F)(F)F | 77 nM | 
CCN(CC)CCN1C(=O)C(O)(c2ccccc2)c2c1cc(C(N)=O)cc2C(F)(F)F (configuration not stated) | 116 nM | 
CCN(CC)CCN1C(=O)[C@@](O)(c2cc(Cl)ccc2Cl)c2c1cc(C(N)=O)cc2C(F)(F)F | 0.24 nM | 
CCN(CC)CCN1C(=O)[C@@](O)(c2ccccc2Cl)c2c1cc(C(N)=O)cc2C(F)(F)F | 2.1 nM | 
CCN(CC)CCN1C(=O)[C@@](O)(c2ccc(Cl)cc2)c2c1cc(C(N)=O)cc2C(F)(F)F | 83 nM | 
CCN(CC)CCN1C(=O)[C@@](O)(c2c(Cl)cccc2Cl)c2c1cc(C(N)=O)cc2C(F)(F)F | 4.2 nM | 
CCN(CC)CCN1C(=O)C(O)(c2ccccc2Cl)c2c1cc(C(N)=O)cc2C(F)(F)F (configuration not stated) | 4 nM | 
CCN(CC)CCN1C(=O)[C@@](O)(c2ccc(OC)cc2)c2c1cc(C(N)=O)cc2C(F)(F)F | 106 nM | 
CCN(CC)CCN1C(=O)[C@@](O)(c2cccc(Cl)c2)c2c1cc(C(N)=O)cc2C(F)(F)F | 15 nM | 
CCN(CC)CCN1C(=O)[C@@](O)(c2ccc(Cl)cc2Cl)c2c1cc(C(N)=O)cc2C(F)(F)F | 0.02 nM | half-life [2]: 96 min; clearance [3]: 51 mL/min/kg; Cmax [4]: 491 ng/mL; bioavailability [5]: 28%; Vd [6]: 5.4 L/kg
